# Experimental data published in patent US8980938B2, “CXCR2 inhibitors” (Sanofi, priority 2006, dated 2015).
# Biological target: human CXCR2 (Homo sapiens (Human), UniProt P25025)
# Assay: CXCR2 inhibition: calcium fluorescence assay (FLIPR) with chemokine IL-8
# Assay type: cell-based
# Settings: CHO-K1 cells stably transfected with human CXCR2 and Gα16, Fluo-4 calcium response
# Text: Determination of CXCR2 Inhibition: Calcium Fluorescence Assay (FLIPR)
# The assay is based on the detection of intracellular calcium changes detected by the selective, calcium-chelating dye, Fluo-4 (Molecular Probes). A large fluorescence intensity increase is observed upon calcium association with Fluo-4. The dye is delivered to the cell interior using an acetoxymethylester form of Fluo-4, where the intracellular esterase activity results in the charged species being released and trapped within the cytoplasm of the cell. […] By co-expressing the CXCR2 receptor and the promiscuous Gα16 protein, activation of this chemokine receptor is directed into this phospholipase C cascade resulting in intracellular calcium mobilization.
# The CHO-K1 cells stably transfected with human CXCR2 and the promiscuous Gα16 protein are maintained in a log phase of growth at 37° C. and 5% CO2 in the following media: Iscove's, 10% FBS, 1X Penicillin-Streptomycin, 400 μg/ml G418 and 350 μg/ml Zeocin. Approximately 24-48 hours prior to the assay, 20,000-30,000 cells/well are plated onto a 96-well black/clear bottomed assay plate (Becton Dickinson) with a well volume of 180 μl. For dye loading the culture medium is carefully removed and replaced by 100 μl/well dye solution (4 μM Fluo-4 in 135 mM NaCl, 5 mM KCl, 1 mM magnesium sulphate, 5 mM glucose, 20 mM hepes, 2.5 mM probenecid; pH 7.4). Cells are incubated for 1 h at 37° C., and then washed 3× with buffer. After washing 90 μl buffer/well are left. Increasing concentrations of compound is added in 45 μl buffer (4× concentrated) followed by 10 min incubation at 37° C. Then the chemokine (10-100 nM) is applied in 45 μl buffer (4× concentrated) and the measurement is performed for 2 min. The IC50 value of a compound can be determined by calculation of % inhibition of total calcium response to the chemokine.
# CXCR2 Inhibition with Chemokine IL-8 for Selected Example Compounds: […]
# Chain of human CXCR2 (P25025 whole entry): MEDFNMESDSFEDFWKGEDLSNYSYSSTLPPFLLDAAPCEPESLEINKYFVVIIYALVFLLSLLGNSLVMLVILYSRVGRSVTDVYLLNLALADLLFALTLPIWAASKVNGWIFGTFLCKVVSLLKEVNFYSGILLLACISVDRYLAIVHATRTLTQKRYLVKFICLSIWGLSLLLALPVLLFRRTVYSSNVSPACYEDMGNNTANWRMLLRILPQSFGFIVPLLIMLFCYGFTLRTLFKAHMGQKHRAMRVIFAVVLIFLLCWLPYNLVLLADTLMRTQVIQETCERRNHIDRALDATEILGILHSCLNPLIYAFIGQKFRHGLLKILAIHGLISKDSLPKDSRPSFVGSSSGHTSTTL
row,SMILES,IC50 [nM]
1,"CC(C)(NC(=O)c1ccc2c(c1OCCOc1ccccc1)CCCC2)C(=O)O [Example 3, 2-Methyl-2-{[1-(2-phenoxy-ethoxy)-5,6,7,8-tetrahydro-naphthalene-2-carbonyl]-amino}-propionic acid]",1000
2,"CC(C)(NC(=O)c1ccc2c(c1OCCCOc1ccccc1)CCCC2)C(=O)O [Example 7, 2-Methyl-2-{[1-(3-phenoxy-propoxy)-5,6,7,8-tetrahydro-naphthalene-2-carbonyl]-amino}-propionic acid]",2100
3,"CC(C)(NC(=O)c1ccc2ccsc2c1OCCOc1ccc(F)cc1)C(=O)O [Example 11, 2-({7-[2-(4-Fluoro-phenoxy)-ethoxy]-benzo[b]thiophene-6-carbonyl}-amino)-2-methyl-propionic acid]",800
4,"CC(C)(NC(=O)c1ccc2ccsc2c1OCCCc1ccccc1)C(=O)O [Example 8, 2-Methyl-2-{[7-(3-phenyl-propoxy)-benzo[b]thiophene-6-carbonyl]-amino}-propionic acid]",600
5,"CC(C)(NC(=O)c1ccc2c(c1OCCCCc1ccccc1)CCCC2)C(=O)O [Example 5, 2-Methyl-2-{[1-(4-phenyl-butoxy)-5,6,7,8-tetrahydro-naphthalene-2-carbonyl]-amino}-propionic acid]",2000

# Results, then the compound that gave them:
row,IC50 [nM],SMILES
1,1700,"CC(C)(NC(=O)c1ccc2sccc2c1OCCOc1ccccc1)C(=O)O [Example 12, 2-Methyl-2-{[4-(2-phenoxy-ethoxy)-benzo[b]thiophene-5-carbonyl]-amino}-propionic acid]"
2,1400,"CC(C)(NC(=O)c1ccc2c(c1OCCC1CCCCC1)CCCC2)C(=O)O [Example 2, 2-{[1-(2-Cyclohexyl-ethoxy)-5,6,7,8-tetrahydro-naphthalene-2-carbonyl]-amino}-2-methyl-propionic acid]"
